{
  "source": "patent US20240299412A1",
  "about": "“DRUG FORMULATIONS OF 4-(3,3-DIFLUORO-2,2-DIMETHYL-PROPANOYL) -3,5-DIHYDRO-2H-PYRIDO[3,4-f][1,4]OXAZEPINE-9-CARBONITRILE” (Genzyme Corporation, priority 2023, published 2024)",
  "assay_type_in_all_cases": "physicochemical",
  "key": {"[1]": {"assay": "Dynamic vapor sorption (DVS)", "method": "DVS. DVS was measured via a SMS (Surface Measurement Systems) DVS Intrinsic. The relative humidity at 25° C. were calibrated against deliquescence point of LiCl, Mg(NO3)2 and KCl.\n(onset temperature). Considering the low TGA weight loss and single sharp DSC endotherm, Form A was postulated to be an anhydrate. […] However Form A has been prepared with much lower volatile content (0.1% or lower)."}, "[2]": {"assay": "Physical and chemical stability of Form A (solid storage)", "method": "To evaluate the physical and chemical stability, Compound (1) Form A was stored in 3 conditions (40° C./75% RH; 25° C./60% RH; and 60° C.) for one and four weeks."}, "[3]": {"assay": "Kinetic solubility in bio-relevant media and H2O", "conditions": "for Final Form: residual solid", "method": "Solids were suspended in FaSSIF, FeSSIF, SGF and H2O with target conc. of ˜10 mg/mL. The suspensions were agitated on a rolling incubator at 25 rpm (in the incubator set at 37° C.) for 1, 4 and 24 hrs. At each time point, 1 mL of the suspension was pipetted out for centrifugation at 15000 rpm (3 min) and filtration through 0.45 μm membrane to obtain supernatant for HPLC solubility and pH tests, the residual solids were analyzed by XRPD."}, "[4]": {"conditions": "40° C./75% RH, 25° C./60% RH, 60° C., one and four weeks"}},
  "data": [
    {"compound": "CC(C)(C(=O)N1CCOc2c(C#N)cncc2C1)C(F)F", "note": "[Form A, 4-(3,3-difluoro-2,2-dimethyl-propanoyl)-3,5-dihydro-2H-pyrido[3,4-f][1,4]oxazepine-9-carbonitrile]", "values": [
      {"measurement": "water uptake (DVS)", "setting": "[1]; 25 C.°/80% RH", "value": 0.024, "unit": "%"},
      {"measurement": "form change after DVS test (XRPD)", "setting": "[1]; after DVS test", "value": "no form change"},
      {"measurement": "API (RRT 1.00) % Area", "setting": "[2]; 1 week, 25° C./60% RH", "value": 99.92, "unit": "% Area"},
      {"measurement": "Description", "setting": "[2]; 1 week, 25° C./60% RH", "value": "White powder"},
      {"measurement": "Final Form", "setting": "[2]; 1 week, 25° C./60% RH", "value": "Form A"},
      {"measurement": "Imp.1 (RRT 0.68) % Area", "setting": "[2]; 1 week, 25° C./60% RH", "value": 0.08, "unit": "% Area"},
      {"measurement": "Purity VS. initial (%)", "setting": "[2]; 1 week, 25° C./60% RH", "value": 100.0, "unit": "%"},
      {"measurement": "API (RRT 1.00) % Area", "setting": "[2]; 1 week, 40° C./75% RH", "value": 99.89, "unit": "% Area"},
      {"measurement": "Description", "setting": "[2]; 1 week, 40° C./75% RH", "value": "White powder"},
      {"measurement": "Final Form", "setting": "[2]; 1 week, 40° C./75% RH", "value": "Form A"},
      {"measurement": "Imp.1 (RRT 0.68) % Area", "setting": "[2]; 1 week, 40° C./75% RH", "value": 0.11, "unit": "% Area"},
      {"measurement": "Purity VS. initial (%)", "setting": "[2]; 1 week, 40° C./75% RH", "value": 100.0, "unit": "%"},
      {"measurement": "API (RRT 1.00) % Area", "setting": "[2]; 1 week, 60° C.", "value": 99.90, "unit": "% Area"},
      {"measurement": "Description", "setting": "[2]; 1 week, 60° C.", "value": "White powder"},
      {"measurement": "Final Form", "setting": "[2]; 1 week, 60° C.", "value": "Form A"},
      {"measurement": "Imp.1 (RRT 0.68) % Area", "setting": "[2]; 1 week, 60° C.", "value": 0.10, "unit": "% Area"},
      {"measurement": "Purity VS. initial (%)", "setting": "[2]; 1 week, 60° C.", "value": 100.0, "unit": "%"},
      {"measurement": "API (RRT 1.00) % Area", "setting": "[2]; 4 weeks, 25° C./60% RH", "value": 99.90, "unit": "% Area"},
      {"measurement": "Description", "setting": "[2]; 4 weeks, 25° C./60% RH", "value": "White powder"},
      {"measurement": "Final Form", "setting": "[2]; 4 weeks, 25° C./60% RH", "value": "Form A"},
      {"measurement": "Imp.1 (RRT 0.68) % Area", "setting": "[2]; 4 weeks, 25° C./60% RH", "value": 0.10, "unit": "% Area"},
      {"measurement": "Purity VS. initial (%)", "setting": "[2]; 4 weeks, 25° C./60% RH", "value": 100.0, "unit": "%"},
      {"measurement": "API (RRT 1.00) % Area", "setting": "[2]; 4 weeks, 40° C./75% RH", "value": 99.90, "unit": "% Area"},
      {"measurement": "Description", "setting": "[2]; 4 weeks, 40° C./75% RH", "value": "White powder"},
      {"measurement": "Final Form", "setting": "[2]; 4 weeks, 40° C./75% RH", "value": "Form A"},
      {"measurement": "Imp.1 (RRT 0.68) % Area", "setting": "[2]; 4 weeks, 40° C./75% RH", "value": 0.10, "unit": "% Area"},
      {"measurement": "Purity VS. initial (%)", "setting": "[2]; 4 weeks, 40° C./75% RH", "value": 100.0, "unit": "%"},
      {"measurement": "API (RRT 1.00) % Area", "setting": "[2]; 4 weeks, 60° C.", "value": 99.90, "unit": "% Area"},
      {"measurement": "Description", "setting": "[2]; 4 weeks, 60° C.", "value": "White powder"},
      {"measurement": "Final Form", "setting": "[2]; 4 weeks, 60° C.", "value": "Form A"},
      {"measurement": "Imp.1 (RRT 0.68) % Area", "setting": "[2]; 4 weeks, 60° C.", "value": 0.10, "unit": "% Area"},
      {"measurement": "Purity VS. initial (%)", "setting": "[2]; 4 weeks, 60° C.", "value": 100.0, "unit": "%"},
      {"measurement": "HPLC purity change on storage", "setting": "[2]; [4]", "value": "no obvious HPLC purity change"},
      {"measurement": "form change on storage (XRPD)", "setting": "[2]; [4]", "value": "no form change"},
      {"measurement": "API (RRT 1.00) % Area", "setting": "[2]; Initial", "value": 99.89, "unit": "% Area"},
      {"measurement": "Imp.1 (RRT 0.68) % Area", "setting": "[2]; Initial", "value": 0.11, "unit": "% Area"},
      {"measurement": "form change after kinetic solubility test", "setting": "[3]; bio-relevant media or H2O", "value": "No form change"},
      {"measurement": "Final Form", "setting": "[3]; FaSSIF (pH 6.5), 37° C., 1 hr", "value": "Form A"},
      {"measurement": "Final Form", "setting": "[3]; FaSSIF (pH 6.5), 37° C., 4 hr", "value": "Form A"},
      {"measurement": "Final Form", "setting": "[3]; FaSSIF (pH 6.5), 37° C., 24 hr", "value": "Form A"},
      {"measurement": "Final Form", "setting": "[3]; FeSSIF (pH 5.0), 37° C., 1 hr", "value": "Form A"},
      {"measurement": "Final Form", "setting": "[3]; FeSSIF (pH 5.0), 37° C., 4 hr", "value": "Form A"},
      {"measurement": "Final Form", "setting": "[3]; FeSSIF (pH 5.0), 37° C., 24 hr", "value": "Form A"},
      {"measurement": "Final Form", "setting": "[3]; H2O (pH 6.5), 37° C., 1 hr", "value": "Form A"},
      {"measurement": "Final Form", "setting": "[3]; H2O (pH 6.5), 37° C., 4 hr", "value": "Form A"},
      {"measurement": "Final Form", "setting": "[3]; H2O (pH 6.5), 37° C., 24 hr", "value": "Form A"},
      {"measurement": "Final Form", "setting": "[3]; SGF (pH 1.8), 37° C., 1 hr", "value": "Form A"},
      {"measurement": "Final Form", "setting": "[3]; SGF (pH 1.8), 37° C., 4 hr", "value": "Form A"},
      {"measurement": "Final Form", "setting": "[3]; SGF (pH 1.8), 37° C., 24 hr", "value": "Form A"},
      {"measurement": "solubility at 1 h", "setting": "[3]; simulated gastric fluid, thermodynamic from solid, SGF (pH 1.8), 37° C., 1 hr, Turbid, final pH 1.8", "value": 2300, "unit": "µg/mL"},
      {"measurement": "solubility at 4 h", "setting": "[3]; simulated gastric fluid, thermodynamic from solid, SGF (pH 1.8), 37° C., 4 hr, Turbid, final pH 2.3", "value": 2400, "unit": "µg/mL"},
      {"measurement": "solubility at 24 h", "setting": "[3]; simulated gastric fluid, thermodynamic from solid, SGF (pH 1.8), 37° C., 24 hr, Turbid, final pH 2.2", "value": 2500, "unit": "µg/mL"},
      {"measurement": "solubility at 1 h", "setting": "[3]; thermodynamic from solid, FaSSIF (pH 6.5), 37° C., 1 hr, Turbid, final pH 6.4", "value": 1100, "unit": "µg/mL"},
      {"measurement": "solubility at 4 h", "setting": "[3]; thermodynamic from solid, FaSSIF (pH 6.5), 37° C., 4 hr, Turbid, final pH 6.6", "value": 1100, "unit": "µg/mL"}
    ]}
  ]
}
